Literature values as cited in patent US20220184108A1, “PHARMACEUTICAL AND NUTRITIONAL COMPOSITION TO MAXIMIZE NAD ENZYME'S HEALTH BENEFITS” (East West Products Corp., priority 2020, published 2022).

Legend:
[1] = doses of up to 500 mg; human study, Keio University School of Medicine
Slc12a8 NMN transporter = target: T1, Slc12a8 NMN transporter (Mus musculus, UniProt Q8VI23); conditions: mice; through the Slc12a8 NMN transporter
T1 sequence (Q8VI23 1-705): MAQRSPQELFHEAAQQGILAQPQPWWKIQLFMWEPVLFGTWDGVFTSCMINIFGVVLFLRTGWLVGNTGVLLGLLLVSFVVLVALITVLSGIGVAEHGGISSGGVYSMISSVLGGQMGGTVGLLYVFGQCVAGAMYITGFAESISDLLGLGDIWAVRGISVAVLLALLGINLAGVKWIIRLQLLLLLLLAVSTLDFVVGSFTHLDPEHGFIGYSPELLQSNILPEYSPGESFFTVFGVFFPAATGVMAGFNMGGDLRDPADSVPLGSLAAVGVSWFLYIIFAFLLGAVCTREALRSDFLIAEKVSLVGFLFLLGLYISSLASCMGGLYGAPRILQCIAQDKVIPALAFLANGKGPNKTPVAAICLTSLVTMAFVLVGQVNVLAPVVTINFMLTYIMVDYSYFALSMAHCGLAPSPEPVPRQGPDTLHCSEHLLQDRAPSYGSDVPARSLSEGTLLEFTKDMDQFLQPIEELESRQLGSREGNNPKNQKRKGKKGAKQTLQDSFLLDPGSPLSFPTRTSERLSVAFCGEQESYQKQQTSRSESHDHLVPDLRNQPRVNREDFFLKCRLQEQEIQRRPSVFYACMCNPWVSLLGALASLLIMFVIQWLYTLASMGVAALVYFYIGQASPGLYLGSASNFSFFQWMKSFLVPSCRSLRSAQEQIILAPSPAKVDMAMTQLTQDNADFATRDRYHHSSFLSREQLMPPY

NC(=O)c1ccc[n+]([C@@H]2O[C@H](COP(=O)([O-])O)[C@@H](O)[C@H]2O)c1 [NMN, Nicotinamide mononucleotide]
safety in men [1]: safe
time for NMN to enter cells via the small intestines converting to NAD+ (Slc12a8 NMN transporter): ≤ 10 min
